Laboratory results: patent US3960949A, “1,2-Biguanides” (Schering Aktiengesellschaft, priority 1971, dated 1976)

Assay: in vivo
Settings: mouse, po
Procedure: Five days after administration of the substance, the number of surviving animals was determined. […] The LD50 values were in each case based on the free base.

CCN=C(NC(=N)N)N(CC)CC.O=[N+]([O-])O [1,1,2-Triethylbiguanide, 1,1,2-Triethylbiguanide Nitrate] and CCCCN/C(=N\CC)NC(=N)N [1-Ethyl-2-n-butylbiguanide] cannot be ordered by LD50 at 120 h: greater than 2000 mg/kg for the first, greater than 2000 mg/kg for the second.

CN/C(=N\CCc1ccccc1)NC(=N)N [1-Methyl-2-β-phenethylbiguanide, 2-Methyl-1-β-phenethylbiguanide Nitrate] and CCCN=C(NC)NC(=N)N.Cl [1-Methyl-2-n-propylbiguanide, 1-Methyl-2-n-propylbiguanide Hydrochloride] cannot be ordered by LD50 at 120 h: 2830 mg/kg for the first, greater than 2000 mg/kg for the second.

Work on Br.CC(C)N=C(NC(=N)N)NC(C)C [1,2-Diisopropylbiguanide, 1,2-Diisopropylbiguanide Hydrobromide] yielded an LD50 at 120 h greater than 2000 mg/kg.

Assay: not given
Settings: in vivo; cited from earlier work

In the case of CCCCNC(=N)NC(=N)N [1-Butylbiguanide, 1-butylbiguanide], the gastrointestinal compatibility is given as “gastrointestinal incompatibility”.
For [H]/N=C(/N)N/C(=N/[H])NCCc1ccccc1 [Phenformin, 1-β-phenethylbiguanide], the gastrointestinal compatibility is listed as “gastrointestinal incompatibility”.
